Counter-ions that a name gives are not always drawn. Like-named read-outs stand apart in the source and are kept apart here.
Test system: p27 levels in LNCaP-S14 cells
Experiment: p27 immunofluorescence screening assay in LNCaP-S14 cells; further: test concentration or dose not given here
[1] = Table 1, standard deviations from plate mean, cell line not given
[2] = […], p27-positive cells, cell line not given
[3] = Table 1, compounds showing SMIP activity in the secondary screen, p27-positive cells, cell line not given

| Molecule | Z score [1] | % positive [2] [%] | % positive [3] [%] | % positive [%] | Z score |
| --- | --- | --- | --- | --- | --- |
| O=C1C=C2C=C[C@@H]3C[C@@]2(O1)[C@H]1CCCCN31 [Securinine, reference compound] | 7.6953 | 15.15 |  |  |  |
| CC[C@@H](C(=O)[C@@H](C)[C@@H](O)[C@H](C)[C@@H]1O[C@@H]([C@@H](CC)C(=O)O)CC[C@@H]1C)[C@H]1O[C@]2(C=C[C@@H](O)[C@]3(CC[C@@](C)([C@H]4CC[C@](O)(CC)[C@H](C)O4)O3)O2)[C@H](C)C[C@@H]1C [Salinomycin, sodium, reference compound] | 37.4159 | 56.17 |  |  |  |
| CCN(CC)c1cc(-c2ccc(F)cc2)nc(-c2ccncc2)n1 [N,N-diethyl-6-(4-fluorophenyl)-2-pyridin-4-yl-pyrimidin-4-amine] | 0.1118 |  | 4.69 |  |  |
| COc1ccc2[nH]cc(CCNC(=O)OC[C@@H]3C[C@H]4CC[C@@H]3C4)c2c1 [(1R,2R,4S)-bicyclo[2.2.1]hept-2-ylmethyl[2-(5-methoxy-1H-indol-3-yl)ethyl]carbamate] | 10.7664 |  | 19.39 |  |  |
| COC(=O)Nc1nc2ccc(Sc3ccccc3)cc2[nH]1 [Fenbendazole, reference compound] | −0.0511 |  | 4.46 |  |  |
| COc1cc([C@@H]2c3cc4c(cc3[C@@H](O[C@@H]3O[C@@H]5CO[C@@H](C)O[C@H]5[C@H](O)[C@H]3O)[C@H]3COC(=O)[C@H]23)OCO4)cc(OC)c1O [Etoposide, reference compound] | 25.6406 |  | 39.92 |  |  |
| C=C(NC(=O)C(=C)NC(=O)c1csc(C2=N[C@@H]3c4csc(n4)[C@H]4NC(=O)c5csc(n5)[C@H]([C@](C)(O)[C@@H](C)O)NC(=O)[C@H]5CSC(=N5)/C(=C/C)NC(=O)[C@H]([C@@H](C)O)NC(=O)c5csc(n5)[C@]3(CC2)NC(=O)[C@H](C)NC(=O)C(=C)NC(=O)[C@H](C)NC(=O)[C@H]([C@@H](C)CC)N[C@@H]2C=Cc3c([C@H](C)O)cc(nc3[C@H]2O)C(=O)O[C@@H]4C)n1)C(N)=O [Thiostrepton, reference compound] | 7.6485 |  | 15.09 |  |  |
| COc1ccc(S(=O)(=O)Nc2ccc3[nH]c(C(C)(C)C)cc3c2)cc1 [N-(2-tert-butyl-(1H)-indol-5-yl)-4-methoxybenzenesulfonamide] | 17.8415 |  | 29.15 |  |  |
| O=C(OCn1ncc(Cl)c(Cl)c1=O)c1ccc(C(F)(F)F)cc1 [(4,5-dichloro-6-oxo-pyridazin-1-yl)methyl-4-(trifluoromethyl)benzoate] | 21.2964 |  | 33.92 |  |  |
| Cc1cc2c(C(C)C)c(O)c(O)c(C=O)c2c(O)c1-c1c(C)cc2c(C(C)C)c(O)c(O)c(C=O)c2c1O [Gossypol, reference compound] | 3.1932 | 8.94 |  |  |  |
| COc1ccc(C[C@H](N)C(=O)N[C@H]2[C@@H](O)[C@H](n3cnc4c(N(C)C)ncnc43)O[C@@H]2CO)cc1 [Puromycin hydrochloride, reference compound] | 42.4217 |  | 63.07 |  |  |
| OC(c1cc(C(F)(F)F)nc2c(C(F)(F)F)cccc12)C1CCCCN1 (centres unmarked) [Mefloquine, reference compound] | 9.5116 |  | 17.66 |  |  |
| CN(C)CC/C=C1/c2ccccc2Sc2ccc(Cl)cc21 [Chlorprothixene hydrochloride, reference compound] | 2.1477 |  | 7.49 |  |  |
| Oligomycin A [Oligomycin A (mix of A, B, C), reference compound] | 16.0298 |  | 26.65 |  |  |
| CC1CN(C(=O)c2cc(-c3ccc(Cl)cc3)cs2)CC(C)O1 (centres unmarked) [4-[[(4-(4-chlorophenyl)thiophen-2-yl]carbonyl]-2,6-dimethylmorpholine] | 14.0559 |  | 23.93 |  |  |
| CCC(=O)N(Cc1cccc(Cl)c1)c1ccc2[nH]c(C(C)(C)C)cc2c1 [N-(2-tert-butyl-(1H)-indol-5-yl)-N-(3-chlorobenzyl)propanamide] | 20.7674 |  | 33.19 |  |  |
| [O-][n+]1ccccc1[S-].[O-][n+]1ccccc1[S-].[Zn+2] [Pyrithione zinc, reference compound] |  |  |  | 10.31 | 4.1877 |
| Cc1cccn2c(=O)c3c(nc12)CCN(C(=O)c1ccc(C(C)(C)C)cc1)C3 [2-(4-tert-butylbenzoyl)-6-methyl-1,2,3,4-tetrahydro-11H-dipyrido-[1,2-a:4′,3′-d]pyrimidin-11-one] | 10.7588 |  | 19.38 |  |  |
| Cc1[nH]cnc1-c1ccc(C(F)(F)F)cc1 [5-methyl-4-(4-(trifluoromethyl)phenyl)-(1H)-imidazole] | 2.4371 |  | 7.89 |  |  |
| Oc1ccc(Cl)cc1Cc1cc(Cl)ccc1O [Dichlorophene, reference compound] | 5.6065 |  | 12.27 |  |  |
| COc1ccc(S(=O)(=O)Nc2cccc3cc(C(=O)NCc4ccc(Cl)cc4)[nH]c23)cc1 [N-(4-chlorobenzyl)-7-[((4-methoxyphenyl)sulfonyl)amino]-(1H)-indole-2-carboxamide] | 4.9019 |  | 11.30 |  |  |
| O=C(OCn1ncc(Cl)c(Cl)c1=O)c1cccc(C(F)(F)F)c1 [(4,5-dichloro-6-oxopyridazin-1(6H)-yl)methyl-3-(trifluoromethyl)benzoate] | 3.0023 |  | 8.67 |  |  |

| Molecule | Z score [1] | % positive [2] [%] | % positive [3] [%] | % positive [%] | Z score |
| --- | --- | --- | --- | --- | --- |
| CO[C@@]12[C@H](COC(N)=O)C3=C(C(=O)C(C)=C(N)C3=O)N1C[C@@H]1N[C@@H]12 [Mitomycin C, reference compound] | 27.5299 |  | 42.52 |  |  |
| Cc1cc(C2CCCCC2)n(O)c(=O)c1 [Ciclopirox olamine, reference compound] | 17.3996 |  | 28.54 |  |  |
| O=C(CCCN1CCC2(CC1)C(=O)NCN2c1ccccc1)c1ccc(F)cc1 [Spiperone, reference compound] | 20.5550 |  | 32.90 |  |  |
| CN(C)c1ccc(O)c2c1C[C@H]1C[C@H]3[C@H](N(C)C)C(O)=C(C(N)=O)C(=O)[C@@]3(O)C(O)=C1C2=O [Minocycline hydrochloride, reference compound] | 30.1696 |  | 46.17 |  |  |
| O=c1cc(-c2ccc(O)c(O)c2)oc2cc(O)cc(O)c12 [Luteolin, reference compound] | 10.5904 |  | 19.15 |  |  |
| COc1cc(OC)c(CN2CC[C@H](NC(=O)c3ccc(-n4nc(C(C)(C)C)cc4C(C)(C)C)cc3)C2)c(OC)c1 [4-(3,5-di-tert-butyl-1H-pyrazol-1-yl)-N-[(3S)-1-(2,4,6-trimethoxybenzyl)pyrrolidin-3-yl]benzamide] | 7.0595 |  | 14.27 |  |  |
| CC(C)(C)c1cc2cc(NS(=O)(=O)c3ccc(Cl)cc3)ccc2[nH]1 [N-(2-tert-butyl-(1H)-indol-5-yl)-4-chlorobenzenesulfonamide] | 23.8290 |  | 37.42 |  |  |
| Clc1ccc(CSC(Cn2ccnc2)c2ccc(Cl)cc2Cl)cc1 (centres unmarked) [Sulconazole nitrate, reference compound] | 11.0719 |  | 19.81 |  |  |
| O=C(Nc1ccccc1)Nc1ccc(SCc2nc(OCC(F)(F)F)cc(OCC(F)(F)F)n2)cc1 [N-[4-[[[4,6-bis(2,2,2-trifluoroethoxy)pyrimidin-2-yl]methyl]thio]phenyl]-N′′-phenylurea] | 25.1654 |  | 39.26 |  |  |
| O=C(CSC1=NNC(c2ccccn2)S1)c1cccc(F)c1 (centres unmarked) [1-(3-fluorophenyl)-2-[(5-pyridin-2-yl-4,5-dihydro-1,3,4-thiadiazol-2-yl)sulfanyl]ethanone] | 15.1024 |  | 25.37 |  |  |
| CSc1ccc2c(c1)C(N1CCN(C)CC1)Cc1ccccc1S2.O=C(O)/C=C\C(=O)O (centres unmarked) [Methiothepin maleate, reference compound] | 3.2976 |  | 9.08 |  |  |
| CC(C)COCC(CN(Cc1ccccc1)c1ccccc1)N1CCCC1 (centres unmarked) [Bepridil hydrochloride, reference compound] | 2.9020 |  | 8.54 |  |  |
| CO[C@@H]1C[C@@H](C[C@H]2CC[C@H](C)[C@H]([C@@H](C)C(=O)O)O2)O[C@]2(O[C@](C)([C@H]3CC[C@@](C)([C@@H]4O[C@@H]([C@H]5O[C@@](O)(CO)[C@H](C)C[C@@H]5C)C[C@@H]4C)O3)C[C@H]2C)[C@@H]1C [Nigericin sodium, reference compound] | 22.1153 |  | 35.05 |  |  |
| CC[C@@]1(O)C(=O)OCc2c1cc1n(c2=O)Cc2cc3ccccc3nc2-1 [Camptothecin, reference compound] | 23.6514 |  | 37.17 |  |  |
| CC[C@@H](C(=O)[C@@H](C)[C@@H](O)[C@H](C)CCc1ccc(C)c(O)c1C(=O)O)[C@H]1O[C@](CC)([C@H]2CC[C@](O)(CC)[C@H](C)O2)C[C@@H]1C [Lasalocid sodium, reference compound] | 29.4743 |  | 45.21 |  |  |
| CCCCCCSc1nnc(N)s1 [5-hexylsulfanyl-1,3,4-thiadiazol-2-amine] | 24.6282 |  | 38.52 |  |  |
| CCN(CC)CCCC(C)Nc1c2ccc(Cl)cc2nc2ccc(OC)cc12 (centres unmarked) [Quinacrine hydrochloride, reference compound] | 22.9232 |  | 36.17 |  |  |
| C=C(CC)C(=O)c1ccc(OCC(=O)O)c(Cl)c1Cl [Ethacrynic acid, reference compound] | 10.2724 |  | 18.71 |  |  |
| CCCCCCCCCCCCCCCC[N+](C)(C)CCN(Cc1ccc(OC)cc1)c1ncccn1 [Thonzonium, reference compound] | 3.7078 |  | 9.65 |  |  |
| O=C1C(Cl)=C(N2CCC(C(=O)N3CCOCC3)CC2)C(=O)c2ccccc21 [3-chloro-2-[4-(morpholine-4-carbonyl)-1-piperidyl]naphthalene-1,4-dione] | 5.7130 |  | 12.42 |  |  |
| CC1=CC(=O)c2ccccc2C1=O [Menadione, reference compound] | 24.4943 |  | 38.33 |  |  |

Reference: US20090054312A1, “SMIPs: Small molecule inhibitors of p27 depletion in cancers and other proliferative diseases” (priority 2007, published 2009)
